Calls of active or inactive are those of the source. No cut-off for these calls is given here.
System: PC-3
Assay: Antiproliferative activity against human PC3 cells at 10 to 100 uM after 48 hrs by hemocytometric cell counting method
Format: functional, cell-based

Row | Structure (SMILES) | inhibition
1 | O=C(O[C@@H]1Cc2c(O)cc(O)c([C@H]3c4c(O)cc(O)cc4O[C@H](c4ccc(O)c(O)c4)[C@@H]3O)c2O[C@@H]1c1ccc(O)c(O)c1)c1cc(O)c(O)c(O)c1 | Active
2 | Oc1cc(O)c2c(c1)O[C@H](c1cc(O)c(O)c(O)c1)[C@@H](O)[C@@H]2c1c(O)cc(O)c2c1O[C@H](c1cc(O)c(O)c(O)c1)[C@@H](O)C2 | Active
3 | O=C(O[C@H]1[C@H](c2c(O)cc(O)c3c2O[C@H](c2ccc(O)c(O)c2)[C@@H](O)C3)c2c(O)cc(O)cc2O[C@@H]1c1ccc(O)c(O)c1)c1cc(O)c(O)c(O)c1 | Active
4 | O=C(O[C@@H]1[C@@H](c2c(O)cc(O)c3c2O[C@H](c2ccc(O)c(O)c2)[C@H](OC(=O)c2cc(O)c(O)c(O)c2)C3)c2c(O)cc(O)cc2O[C@@H]1c1ccc(O)c(O)c1)c1cc(O)c(O)c(O)c1 | Active
5 | O=C(O[C@H]1[C@H](c2c(O)cc(O)c3c2O[C@H](c2ccc(O)c(O)c2)[C@@H](OC(=O)c2cc(O)c(O)c(O)c2)C3)c2c(O)cc(O)cc2O[C@@H]1c1ccc(O)c(O)c1)c1cc(O)c(O)c(O)c1 | Active
6 | O=C(O[C@@H]1[C@@H](c2c(O)cc(O)c3c2O[C@H](c2ccc(O)c(O)c2)[C@H](O)C3)c2c(O)cc(O)cc2O[C@@H]1c1ccc(O)c(O)c1)c1cc(O)c(O)c(O)c1 | Active
7 | O=C(O[C@H]1Cc2c(O)cc(O)c([C@@H]3c4c(O)cc(O)cc4O[C@H](c4ccc(O)c(O)c4)[C@H]3O)c2O[C@@H]1c1ccc(O)c(O)c1)c1cc(O)c(O)c(O)c1 | Active
8 | O=C(O[C@@H]1Cc2c(O)cc(O)cc2O[C@@H]1c1cc(O)c(O)c(O)c1)c1cc(O)c(O)c(O)c1 | Active

Source: ChEMBL document CHEMBL2412981, “Syntheses of procyanidin B2 and B3 gallate derivatives using equimolar condensation mediated by Yb(OTf)3 and their antitumor activities” (Bioorg Med Chem Lett, 2013)
